This is an account of results in patent US20070072903A1, “Altering the concentration of intracellular agents by p2x7 receptor modulation” (priority 2003, published 2007).

Data set [1] concerns the target T1, P2X7 receptor (Mus musculus, UniProt Q9Z1M0).
T1 construct: Murine mesenteric lymph nodes (10^7/ml) were disaggregated in DMEM; from tissue; host or cells: murine mesenteric lymph node lymphocytes (CD4+, CD8+ T cells, B cells)
T1 sequence (Q9Z1M0 1-595): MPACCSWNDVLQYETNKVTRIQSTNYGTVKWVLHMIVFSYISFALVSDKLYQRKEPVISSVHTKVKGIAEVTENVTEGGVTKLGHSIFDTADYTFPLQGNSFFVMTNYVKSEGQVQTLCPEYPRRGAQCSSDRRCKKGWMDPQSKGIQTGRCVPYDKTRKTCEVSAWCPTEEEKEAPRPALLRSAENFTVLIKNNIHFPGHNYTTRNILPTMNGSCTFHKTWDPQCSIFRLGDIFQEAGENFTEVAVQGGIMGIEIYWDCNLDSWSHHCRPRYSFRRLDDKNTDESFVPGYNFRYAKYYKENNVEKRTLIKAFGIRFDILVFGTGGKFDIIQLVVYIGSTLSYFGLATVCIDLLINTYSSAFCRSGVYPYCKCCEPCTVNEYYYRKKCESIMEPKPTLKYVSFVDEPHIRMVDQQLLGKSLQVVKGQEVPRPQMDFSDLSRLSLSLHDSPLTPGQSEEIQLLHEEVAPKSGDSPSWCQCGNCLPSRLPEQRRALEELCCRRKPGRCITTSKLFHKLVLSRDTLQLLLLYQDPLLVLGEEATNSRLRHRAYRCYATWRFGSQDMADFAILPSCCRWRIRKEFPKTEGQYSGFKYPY
The data set can be described thus: PS translocation (annexin V binding) in murine lymphocytes, real-time flow cytometry. In kind it is cell-based. From the text: Murine mesenteric lymph nodes (10^7/ml) were disaggregated in DMEM. To discriminate between different lymphocyte subsets, cells were stained with CD4^APC, CD4^CYCHROME, CD4^PE, CD4^FITC, CD8^APC, CD8^PE, CD8^PERCP, CD8^FITC, B220^APC (Becton Dickinson, Cailf.) antibodies as indicated. The fluorophore on antibodies used to identify CD4^+ and CD8^+T cells was varied in some experiments to avoid overlap between emission spectra of the antibody-conjugated fluorochromes and fluorescent transport substrates. Cells were washed with DMEM and analysed by flow cytometry (CellQuest software—Becton Dickinson). Live cells were gated by eye on the basis of forward scatter and side scatter. […]
To measure drug uptake the following fluorochromes were used (from Molecular Probes, Leiden, Netherlands, unless stated): 0.2 μM BODIPY-taxol (BT), 0.25 μM Rh123, 0.2 μM mitoxantrone (Sigma). PS exposure was monitored simultaneously in the same population of cells by increased binding of annexin V as follows. Cells were equilibrated with annexin V^FITC, annexin V^PE, or annexin V^CY5 (AV—Becton Dickinson, Cailf.) together with propidium iodide (PI) for four minutes, and analysed by flow cytometry on a FACScalibur machine using CellQuest software (Becton Dickinson, Cailf.). […] Cells were monitored for BT uptake or PS exposure continuously in real time for up to 15 minutes, as indicated. […]

The subject of data set [2] is P-gp. The data set can be described thus: BODIPY-taxol uptake in mixed mdr1a/b-deficient and parental CD8+ lymphocytes. In kind it is cell-based, mouse. The note with it: mdr-deficient versus wild type CD8+ lymphocytes.
Description: Mice were between 6 and 14 weeks of age. When experiments utilised FVB.mdr1a/b^−/− mice, age-matched FVB mice were used.
In a further experiment, lymphocytes from mdr1a/b-deficient or parental mice (mdr1a/b^+/+) were labelled with anti-CD8^PE and anti-CD8^PERCP antibodies, respectively (to discriminate between CD8^+ cells from each mouse during subsequent analysis). […]
Data set [3] deals with breast cancer resistance protein (abcg2). As to the kind of experiment: Mitoxantrone uptake in mdr1a/b-deficient lymphocytes. The note with it: 0.2 μM mitoxantrone. It is filed as cell-based, mouse.
The subject of data set [4] is plasma membrane permeability. The data set can be described thus: Propidium uptake after BzATP stimulation (non-specific membrane permeability). In kind it is cell-based, mouse. Conditions: BzATP-mediated stimulation; data omitted for brevity.
For data set [5] the following is noted: injected into the hindpaw of rats at 100 nmol/50 μl; cited from earlier work.
The subject of data set [6] is P2X7-HEK 293 cells. As to the kind of experiment: BODIPY-taxol uptake in HEK 293 and P2X7-HEK 293 cells. In kind it is cell-based. The note with it: 150 μM BzATP. How it is done:
(§1) NIH 3T3 cells stably transfected with the human MDR1 gene (Ueda et al, 1987 Proc. Natl. Acad. Sci. USA 84, 3004-3008) were a gift from Michael Gottesman (NIH, Bethesda) and were maintained in 1 μg/ml colchicine in Dulbecco's modified Eagle's medium (DMEM—Sigma). HEK 293 cells stably transfected with rP2X7 have been described elsewhere (Wilson et al, 2002 J. Biol. Chem. 277, 34017-34023). Transient transfection of HEK293 cells was performed using polyethyleneimine (Sigma), as described previously (Dixon et al, 2000 Hum. Mol. Genet. 9, 1209-1217). pMDR1-wt, which encodes wild-type P-gp, has also been described previously (Blott et al, 1999 EMBO J. 18, 6800-6808). Expression of the MDR1 gene product, P-gp, on transfected cells was determined by labelling of cells with UIC2^PE in the presence of cyclosporine A (Sigma), as described by Mechetner et al, (1997 Proc. Natl. Acad. Sci. 94, 12908-12913).
(§2) To measure drug uptake the following fluorochromes were used (from Molecular Probes, Leiden, Netherlands, unless stated): 0.2 μM BODIPY-taxol (BT), 0.25 μM Rh123, 0.2 μM mitoxantrone (Sigma). PS exposure was monitored simultaneously in the same population of cells by increased binding of annexin V as follows. […] Cells were monitored for BT uptake or PS exposure continuously in real time for up to 15 minutes, as indicated. […]

The test system of data set [7] is mdr1a/b-deficient CD4+ and CD8+ T cells. As to the kind of experiment: BODIPY-taxol uptake in mdr1a/b-deficient T cells. The note with it: 175 μM BzATP. It is filed as cell-based, mouse. The protocol: To measure drug uptake the following fluorochromes were used (from Molecular Probes, Leiden, Netherlands, unless stated): 0.2 μM BODIPY-taxol (BT), 0.25 μM Rh123, 0.2 μM mitoxantrone (Sigma). PS exposure was monitored simultaneously in the same population of cells by increased binding of annexin V as follows. Cells were equilibrated with annexin V^FITC, annexin V^PE, or annexin V^CY5 (AV—Becton Dickinson, Cailf.) together with propidium iodide (PI) for four minutes, and analysed by flow cytometry on a FACScalibur machine using CellQuest software (Becton Dickinson, Cailf.). Baseline fluorescence was established for approximately one minute prior to addition of 150 μM (unless otherwise stated) 2′-3′-O-(4-benzoylbenzoyl)-adenosine 5′-triphosphate (BzATP, Sigma). Cells were monitored for BT uptake or PS exposure continuously in real time for up to 15 minutes, as indicated. Continuous line graphs of changes in annexin V binding and fluorochrome uptake were plotted using FCSPress software (FCSPress.com, Cambridge, UK).
Mitoxantrone (Mx) or Mx plus BzATP, were added as indicted by arrows. Mitoxantrone uptake was measured as an increase in mean (±S.E.) fluorescence (FL-4 channel). […] BODIPY-taxol uptake was measured as an increase in mean (±S.E.) fluorescence (FL-1 channel). […] Only the responses of live cells (i.e. those excluding PI) were subsequently analysed.

Data set [8] deals with P-gp. The data set can be described thus: Rh123 uptake (P-gp activity) in murine lymphocytes, real-time flow cytometry. In kind it is cell-based, mouse. Conditions: 0.25 μM Rh123, 150 μM BzATP; CD4+, CD8+ and B cells. (Flow cytometry measures light scatter and fluorescence of single cells or particles in a stream.)
Description: Murine mesenteric lymph nodes (10^7/ml) were disaggregated in DMEM. To discriminate between different lymphocyte subsets, cells were stained with CD4^APC, CD4^CYCHROME, CD4^PE, CD4^FITC, CD8^APC, CD8^PE, CD8^PERCP, CD8^FITC, B220^APC (Becton Dickinson, Cailf.) antibodies as indicated. The fluorophore on antibodies used to identify CD4^+ and CD8^+T cells was varied in some experiments to avoid overlap between emission spectra of the antibody-conjugated fluorochromes and fluorescent transport substrates. Cells were washed with DMEM and analysed by flow cytometry (CellQuest software—Becton Dickinson). Live cells were gated by eye on the basis of forward scatter and side scatter. Lymphocytes lacking CD4 and CD8 were defined as B cells.
Lymphocytes were labelled with anti-CD4^CYCHROME and anti-CD8^APC antibodies to discriminate between CD4^+T cells, CD8^+T cells and B cells (CD4^− CD8^−). The lymphocytes were incubated with annexin V^PE, and then 0.25 μM Rh123 and 150 μM BzATP were added sequentially (as indicated in the Figures by arrows).
In data set [9] the target is T2, P2X7 receptor (Rattus norvegicus, UniProt Q64663).
T2 construct: expressed in transfected cells; transiently co-transfected with MDR1 cDNA
T2 sequence (Q64663 1-595): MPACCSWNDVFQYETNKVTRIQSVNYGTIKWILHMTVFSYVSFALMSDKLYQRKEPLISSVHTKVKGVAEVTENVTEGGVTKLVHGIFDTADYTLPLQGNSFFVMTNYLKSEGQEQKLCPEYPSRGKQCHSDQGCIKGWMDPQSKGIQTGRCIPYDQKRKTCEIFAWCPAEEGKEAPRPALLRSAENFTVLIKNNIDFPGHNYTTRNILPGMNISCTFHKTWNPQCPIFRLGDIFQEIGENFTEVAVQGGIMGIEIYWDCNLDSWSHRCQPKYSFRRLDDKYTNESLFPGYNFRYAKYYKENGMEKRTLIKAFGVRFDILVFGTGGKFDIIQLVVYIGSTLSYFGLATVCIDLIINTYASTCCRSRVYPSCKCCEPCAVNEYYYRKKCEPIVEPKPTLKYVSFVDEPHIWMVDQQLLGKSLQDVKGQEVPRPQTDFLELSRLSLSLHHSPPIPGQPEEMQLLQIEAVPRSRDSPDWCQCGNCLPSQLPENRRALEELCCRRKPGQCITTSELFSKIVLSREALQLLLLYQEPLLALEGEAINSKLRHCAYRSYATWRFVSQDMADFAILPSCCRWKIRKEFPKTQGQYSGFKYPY
It is filed as cell-based. Conditions: HEK 293 cells expressing both P-gp and P2X7 receptor. How it is done:
as §1, §2

Data set [10] has as its system P2X7 receptor. It is filed as cell-based. The note with it: HEK 293 cells expressing P-gp but lacking P2X7 receptors. The protocol: as §1, §2
The test system of data set [11] is P-gp. The data set can be described thus: BODIPY-taxol uptake in NIH3T3-MDR and parental NIH3T3 cells, continuous FACS analysis. Conditions: 175 μM BzATP, which lack the P2X7 receptor. In kind it is cell-based, mouse.
Protocol: To measure drug uptake the following fluorochromes were used (from Molecular Probes, Leiden, Netherlands, unless stated): 0.2 μM BODIPY-taxol (BT), 0.25 μM Rh123, 0.2 μM mitoxantrone (Sigma). […] Baseline fluorescence was established for approximately one minute prior to addition of 150 μM (unless otherwise stated) 2′-3′-O-(4-benzoylbenzoyl)-adenosine 5′-triphosphate (BzATP, Sigma). Cells were monitored for BT uptake or PS exposure continuously in real time for up to 15 minutes, as indicated.
BODIPY-taxol (BT) and 175 μM BzATP were added to NIH3T3-MDR and parental NIH3T3 cells at times indicated by arrows. BT uptake was monitored by continuous FACS analysis, as an increase in fluorescence as a function of time.
In data set [12] the test system is P-gp. The data set can be described thus: BODIPY-taxol uptake in HEK 293 cells with or without P2X7, transiently transfected with MDR1. The note with it: HEK 293 cells expressing both P-gp and P2X7 receptor. In kind it is cell-based.
For data set [13], the system named is P-gp. The data set can be described thus: Annexin V trapping of PS after brief BzATP stimulation, BODIPY-taxol uptake in mdr1a/b-deficient and parental lymphocytes. In kind it is cell-based, mouse. Conditions: BzATP 45 seconds, washed, annexin V for 30 minutes to trap PS in the outer leaflet. How it is done:
In this example, the inventors compared the uptake of BODIPY-taxol by parental and mdr1a/b-deficient lymphocytes, briefly stimulated with BzATP either in the continuous presence of annexin V to ‘trap’ PS in the outer leaflet, or with annexin V added only shortly before acquisition. The results are shown in FIGS. 4A-D. The experiments were performed as described below. Lymphocytes from mdr1a/b-deficient or parental mice (mdr1a/b^+/+) were labelled with anti-CD8^PE and anti-CD8^CY antibodies, respectively (to discriminate between CD8^+ cells from each mouse during subsequent analysis). […] BODIPY-taxol uptake was then measured by real-time flow cytometry. Reduced BT uptake indicates enhanced P-gp activity; increased annexin^CY5 binding indicates increased PS translocation from the inner to outer leaflet of the membrane. […] As PS exposure in samples stained with annexin V for four minutes immediately following stimulation (not shown) was equivalent to that in cells incubated for 30 minutes, PS trapping by annexin V appeared to be effectively complete.

“2′-3′-O-(4-benzoylbenzoyl)-adenosine 5′-triphosphate [BzATP]”: the “PS translocation (annexin V binding)” value in data set [1] (150 μM BzATP, CD4+ T cells, CD8+ T cells and B cells) was “stimulated PS translocation with the order of responsiveness CD4^+ cells>CD8^+ T cells>>B cells”. Further, the PS translocation result was “induced PS translocation” in [1] (mdr1a/b-deficient lymphocytes), “induced PS translocation” in data set [9] and “neither induced PS translocation” in data set [10]. Moreover, in data set [2], the “BT uptake following BzATP treatment” value is “rapidly reached equivalence in the mdr-deficient and wild type cells”. In addition, the uptake of mitoxantrone result in data set [3] is reported as “markedly increased uptake of mitoxantrone”. In addition, the “uptake of propidium ions” value in data set [4] is reported as “did not result in an increased uptake of propidium ions”. The toxicity entry in [5] is listed as “non-toxic”. Besides, the “rate of uptake of BODIPY-taxol” value in [6] and in data set [7] was “increased the rate of uptake” in each case. Further, in data set [8], the “P-gp activity (uptake of Rh123)” value was “order of responsiveness was CD4^+>CD8^+>>B cells”. Besides, the “P-gp activity (BT accumulation)” value in [11] is “did not inhibit P-gp activity and thus did not increase BT accumulation”. The “BODIPY-taxol uptake (P-gp inhibition)” value in data set [12] is “increased BODIPY-taxol uptake”.

B1: annexin V: substance which binds to phosphatidylserine and retains it in the outer leaflet (protein, UniProt P08758 2-320, looked up)
Annexin A5: AQVLRGTVTDFPGFDERADAETLRKAMKGLGTDEESILTLLTSRSNAQRQEISAAFKTLFGRDLLDDLKSELTGKFEKLIVALMKPSRLYDAYELKHALKGAGTNEKVLTEIIASRTPEELRAIKQVYEEEYGSSLEDDVVGDTSGYYQRMLVVLLQANRDPDAGIDEAQVEQDAQALFQAGELKWGTDEEKFITIFGTRSVSHLRKVFDKYMTISGFQIEETIDRETSGNLEQLLLAVVKSIRSIPAYLAETLYYAMKGAGTDDHTLIRVMVSRSEIDLFNIRKEFRKNFATSLYSMIKGDTSGDYKKALLLLCGEDD
Consider B1, for which the “restoration of P-gp activity” value in data set [13] is reported as “prevents the restoration of P-gp activity”.
